Converted amounts (≈) assume the structure as drawn. Read-outs that look alike come from different tables or passages of the source. Where a SMILES comes first, the peptide text is derived from it. [ ]: non-standard residue; d: D form. The star is where a group is joined. ξ: configuration not given here. Phe(4-NO2) = N[C@@H](Cc1ccc([N+](=O)[O-])cc1)C(=O)O; Biotin = O=C1N[C@H]2[C@H](CS[C@H]2CCCCC(=O)*)N1; Oic = O=C(O)[C@@H]1C[C@@H]2CCCC[C@@H]2N1; Phe(4-Cl) = N[C@@H](Cc1ccc(Cl)cc1)C(=O)O; Phe(4-F) = N[C@@H](Cc1ccc(F)cc1)C(=O)O; Tic = O=C(O)[C@@H]1Cc2ccccc2CN1; ξTic = O=C(O)C1Cc2ccccc2CN1; ξOic = O=C(O)C1CC2CCCCC2N1; Orn = NCCC[C@H](N)C(=O)O; Dap = NC[C@H](N)C(=O)O; NH(CH2)3NH2 = NCCCN*; βAla = NCCC(=O)O
Experiments:
[1] = tested on: Salmonella typhimurium (ATCC 13311); conditions: for p(MIC) Salmonella typhimurium: -log(MIC); for MIC Salmonella typhimurium: ATCC 13311
[2] = tested on: Mycobacterium ranae (ATCC 110)
[3] = tested on: Bacillus subtillis (ATCC 43223); conditions: for p(MIC) Bacillus Subtillis: -log(MIC); for MIC Bacillus Subtillis: ATCC 43223
[4] = tested on: Staphylococcus aureus Methicillin/Gentamicin/Tetracycline Resistant (ATCC 33592); conditions: for p(MIC) Staphylococcus aureus ME/GM/TC resistant: -log(MIC); for MIC Staphylococcus aureus ME/GM/TC resistant: Minimal Inhibitory Concentration, tested at 100-0.1 in 1% DMSO; for Minimum Inhibitory Concentration Staphylococcus aureus ME/GM/TC resistant: in vitro MIC, tested at 100, 30, 10, 3, 1, 0.3 and 0.1 μM in 1% DMSO; for Actual Bioactivity: p(MIC) used in Staphylococcus aureus QSAR model
[5] = in vitro; conditions: rat, microsomes, pH 7.4
[6] = in vitro; conditions: mouse, microsomes, pH 7.4
[7] = in vitro; conditions: monkey, microsomes, pH 7.4
[8] = in vitro; conditions: dog, microsomes, pH 7.4

CC(=O)NCC(=O)N[C@@H](Cc1ccccc1)C(=O)N1Cc2ccccc2C[C@H]1C(=O)N1[C@H](C(=O)NCC(=O)N[C@@H](CCCCN)C(=O)N2Cc3ccccc3C[C@H]2C(=O)N2[C@H](C(=O)NCC(=O)N[C@@H](Cc3ccccc3)C(=O)N3Cc4ccccc4C[C@H]3C(=O)N3[C@H](C(=O)NCC(=O)N[C@@H](CCCCN)C(=O)N4Cc5ccccc5C[C@H]4C(=O)N[C@@H](CCCCN)C(=O)N[C@@H](CCCCN)C(=O)N[C@@H](CCCCN)C(=O)N[C@@H](CCCCN)C(=O)NCCCN)C[C@@H]4CCCC[C@@H]43)C[C@@H]3CCCC[C@@H]32)C[C@@H]2CCCC[C@@H]21 [FKAB-1L, Ac-GF-Tic-Oic-GK-Tic-Oic-GF-Tic-Oic-GK-Tic-KKKK-CONH—CH2—CH2—CH2—NH2] (Ac-GF[Tic][Oic]GK[Tic][Oic]GF[Tic][Oic]GK[Tic]KKKK-{NH(CH2)3NH2})
p(MIC) Salmonella typhimurium [1]: 4.52 | MIC Salmonella typhimurium [1]: 30 µM (≈ 74.9 µg/mL) | Actual Bioactivity [2]: 5.000 | MIC Mycobacterium ranae ([2]; ATCC 110): 10.00 µM (≈ 25 µg/mL) | Minimum Inhibitory Concentration Mycobacterium ranae ([2]; ATCC 110): 10 µM | p(MIC) Bacillus Subtillis [3]: 5.52 | MIC Bacillus Subtillis [3]: 3.00 µM (≈ 7.49 µg/mL) | p(MIC) Staphylococcus aureus ME/GM/TC resistant [4]: 5.00 | MIC Staphylococcus aureus ME/GM/TC resistant [4]: 10.00 µM (≈ 25 µg/mL) | Minimum Inhibitory Concentration Staphylococcus aureus ME/GM/TC resistant [4]: 10 µM | Actual Bioactivity [4]: 5.000

CC(=O)NCC(=O)N[C@@H](Cc1ccccc1)C(=O)N1Cc2ccccc2C[C@H]1C(=O)N1[C@H](C(=O)NCC(=O)N[C@@H](CCCCN)C(=O)N2Cc3ccccc3C[C@H]2C(=O)N2[C@H](C(=O)NCC(=O)N[C@@H](Cc3ccccc3)C(=O)N3Cc4ccccc4C[C@H]3C(=O)N3[C@H](C(=O)NCC(=O)N[C@@H](CCCCN)C(=O)N4Cc5ccccc5C[C@H]4C(=O)N[C@@H](CCCN)C(=O)N[C@@H](CCCN)C(=O)N[C@@H](CCCN)C(=O)N[C@@H](CCCN)C(N)=O)C[C@@H]4CCCC[C@@H]43)C[C@@H]3CCCC[C@@H]32)C[C@@H]2CCCC[C@@H]21 [FKAB-1Gj, Ac-GF-Tic-Oic-GK-Tic-Oic-GF-Tic-Oic-GK-Tic-Orn-Orn-Orn-Orn-CONH2] (Ac-GF[Tic][Oic]GK[Tic][Oic]GF[Tic][Oic]GK[Tic][Orn][Orn][Orn][Orn]-NH2)
p(MIC) Salmonella typhimurium [1]: 5.00 | MIC Salmonella typhimurium [1]: 10 µM (≈ 23.8 µg/mL) | Actual Bioactivity [2]: 5.000 | Minimum Inhibitory Concentration Mycobacterium ranae [2]: 10 µM | MIC Mycobacterium ranae ([2]; ATCC 110): 10.00 µM (≈ 23.8 µg/mL) | p(MIC) Bacillus Subtillis [3]: 6.00 | MIC Bacillus Subtillis [3]: 1.00 µM (≈ 2.38 µg/mL) | p(MIC) Staphylococcus aureus ME/GM/TC resistant [4]: 5.00 | MIC Staphylococcus aureus ME/GM/TC resistant [4]: 10.00 µM (≈ 23.8 µg/mL) | Minimum Inhibitory Concentration Staphylococcus aureus ME/GM/TC resistant [4]: 10 µM | Actual Bioactivity [4]: 5.000

CC(=O)NCC(=O)N[C@@H](Cc1ccc(Cl)cc1)C(=O)N1Cc2ccccc2C[C@H]1C(=O)N1[C@H](C(=O)NCC(=O)N[C@@H](CCCCN)C(=O)N2Cc3ccccc3C[C@H]2C(=O)N2[C@H](C(=O)NCC(=O)N[C@@H](Cc3ccc(Cl)cc3)C(=O)N3Cc4ccccc4C[C@H]3C(=O)N3[C@H](C(=O)NCC(=O)N[C@@H](CCCCN)C(=O)N4Cc5ccccc5C[C@H]4C(=O)N[C@@H](CCCCN)C(=O)N[C@@H](CCCCN)C(=O)N[C@@H](CCCCN)C(=O)N[C@@H](CCCCN)C(N)=O)C[C@@H]4CCCC[C@@H]43)C[C@@H]3CCCC[C@@H]32)C[C@@H]2CCCC[C@@H]21 [FKAB-1Go1, Ac-G-Cph-Tic-Oic-GK-Tic-Oic-G-Cph-Tic-Oic-GK-Tic-KKKK-CONH2] (Ac-G[Phe(4-Cl)][Tic][Oic]GK[Tic][Oic]G[Phe(4-Cl)][Tic][Oic]GK[Tic]KKKK-NH2)
Minimum Inhibitory Concentration Salmonella typhimurium ([1]; in vitro MIC, tested at 100, 30, 10, 3, 1, 0.3 and 0.1 μM in 1% DMSO): not active | Minimum Inhibitory Concentration Mycobacterium ranae ([2]; ATCC 110): 10 µM

NCCCC[C@H](NC(=O)[C@H](CCCCN)NC(=O)[C@H](CCCCN)NC(=O)[C@H](CCCCN)NC(=O)C1Cc2ccccc2CN1C(=O)[C@H](CCCCN)NC(=O)CNC(=O)C1CC2CCCCC2N1C(=O)C1Cc2ccccc2CN1C(=O)[C@H](Cc1ccccc1)NC(=O)CNC(=O)C1CC2CCCCC2N1C(=O)C1Cc2ccccc2CN1C(=O)[C@H](CCCCN)NC(=O)CNC(=O)C1CC2CCCCC2N1C(=O)C1Cc2ccccc2CN1C(=O)[C@H](Cc1ccccc1)NC(=O)CNC(=O)CCCC[C@@H]1SC[C@@H]2NC(=O)N[C@@H]21)C(N)=O (stereo partly drawn) [FKAB-1Gl, Biotin-GF-Tic-Oic-GK-Tic-Oic-GF-Tic-Oic-GK-Tic-KKKK-CONH2] (Biotin-GF[ξTic][ξOic]GK[ξTic][ξOic]GF[ξTic][ξOic]GK[ξTic]KKKK-NH2)
remaining at 0.25 h, 1 μM [5]: 73% | remaining at 0.5 h, 1 μM [5]: 83% | remaining at 1 h, 1 μM [5]: 105% | remaining at 0.25 h, 1 μM [6]: 96% | remaining at 0.5 h, 1 μM [6]: 87% | remaining at 1 h, 1 μM [6]: 78% | remaining at 0.25 h, 1 μM [7]: 80% | remaining at 0.5 h, 1 μM [7]: 77% | remaining at 1 h, 1 μM [7]: 77% | Minimum Inhibitory Concentration Mycobacterium ranae ([2]; ATCC 110): 10 µM | remaining at 0.5 h, 1 μM [8]: 84% | remaining at 1 h, 1 μM [8]: 80% | Minimum Inhibitory Concentration Staphylococcus aureus ME/GM/TC resistant [4]: 3 µM

CC(=O)NCCC(=O)N[C@@H](Cc1ccc(F)cc1)C(=O)N1Cc2ccccc2C[C@H]1C(=O)N1[C@H](C(=O)NCCC(=O)N[C@@H](CN)C(=O)N2Cc3ccccc3C[C@H]2C(=O)N2[C@H](C(=O)NCCC(=O)N[C@@H](Cc3ccc(F)cc3)C(=O)N3Cc4ccccc4C[C@H]3C(=O)N3[C@H](C(=O)NCCC(=O)N[C@@H](CN)C(=O)N4Cc5ccccc5C[C@H]4C(=O)N[C@@H](CN)C(=O)N[C@@H](CN)C(=O)N[C@@H](CN)C(=O)N[C@@H](CN)C(N)=O)C[C@@H]4CCCC[C@@H]43)C[C@@H]3CCCC[C@@H]32)C[C@@H]2CCCC[C@@H]21 [FBAB-1Gw, Ac-βAla-Fpa-Tic-Oic-βAla-Dpr-Tic-Oic-βAla-Fpa-Tic-Oic-βAla-Dpr-Tic-Dpr-Dpr-Dpr-Dpr-CONH2] (Ac-[βAla][Phe(4-F)][Tic][Oic][βAla][Dap][Tic][Oic][βAla][Phe(4-F)][Tic][Oic][βAla][Dap][Tic][Dap][Dap][Dap][Dap]-NH2)
selectivity for Salmonella typhimurium over Mycobacterium ranae ([1]; in vitro): 33 fold | selectivity for Salmonella typhimurium over Staphylococcus aureus ME/GM/TC resistant ([1]; in vitro): 10 fold | Minimum Inhibitory Concentration Mycobacterium ranae ([2]; ATCC 110): 100 µM

CC(=O)NCC(=O)N[C@H](Cc1ccccc1)C(=O)N1Cc2ccccc2C[C@H]1C(=O)N1[C@H](C(=O)NCC(=O)N[C@@H](CCCCN)C(=O)N2Cc3ccccc3C[C@H]2C(=O)N2[C@H](C(=O)NCC(=O)N[C@H](Cc3ccccc3)C(=O)N3Cc4ccccc4C[C@H]3C(=O)N3[C@H](C(=O)NCC(=O)N[C@@H](CCCCN)C(=O)N4Cc5ccccc5C[C@H]4C(=O)N[C@@H](CCCCN)C(=O)N[C@@H](CCCCN)C(=O)N[C@@H](CCCCN)C(=O)N[C@@H](CCCCN)C(N)=O)C[C@@H]4CCCC[C@@H]43)C[C@@H]3CCCC[C@@H]32)C[C@@H]2CCCC[C@@H]21 [FKAB-1G2, Ac-G-dF-Tic-Oic-GK-Tic-Oic-G dF-Tic-Oic-GK-Tic-KKKK-CONH2] (Ac-G[dF][Tic][Oic]GK[Tic][Oic]G[dF][Tic][Oic]GK[Tic]KKKK-NH2)
Minimum Inhibitory Concentration Mycobacterium ranae ([2]; ATCC 110): 10 µM

CC(=O)NCC(=O)N[C@@H](Cc1ccc([N+](=O)[O-])cc1)C(=O)N1Cc2ccccc2C[C@H]1C(=O)N1[C@H](C(=O)NCC(=O)N[C@@H](CCCCN)C(=O)N2Cc3ccccc3C[C@H]2C(=O)N2[C@H](C(=O)NCC(=O)N[C@@H](Cc3ccc([N+](=O)[O-])cc3)C(=O)N3Cc4ccccc4C[C@H]3C(=O)N3[C@H](C(=O)NCC(=O)N[C@@H](CCCCN)C(=O)N4Cc5ccccc5C[C@H]4C(=O)N[C@@H](CCCCN)C(=O)N[C@@H](CCCCN)C(=O)N[C@@H](CCCCN)C(=O)N[C@@H](CCCCN)C(N)=O)C[C@@H]4CCCC[C@@H]43)C[C@@H]3CCCC[C@@H]32)C[C@@H]2CCCC[C@@H]21 [FKAB-1Go2, Ac-G-Nph-Tic-Oic-GK-Tic-Oic-G-Nph-Tic-Oic-GK-Tic-KKKK-CONH2] (Ac-G[Phe(4-NO2)][Tic][Oic]GK[Tic][Oic]G[Phe(4-NO2)][Tic][Oic]GK[Tic]KKKK-NH2)
Minimum Inhibitory Concentration Mycobacterium ranae ([2]; ATCC 110): 10 µM

CC(=O)NCC(=O)N[C@@H](Cc1ccccc1)C(=O)N1Cc2ccccc2C[C@H]1C(=O)N1[C@H](C(=O)NCC(=O)N[C@@H](CN)C(=O)N2Cc3ccccc3C[C@H]2C(=O)N2[C@H](C(=O)NCC(=O)N[C@@H](Cc3ccccc3)C(=O)N3Cc4ccccc4C[C@H]3C(=O)N3[C@H](C(=O)NCC(=O)N[C@@H](CN)C(=O)N4Cc5ccccc5C[C@H]4C(=O)N[C@@H](CN)C(=O)N[C@@H](CN)C(=O)N[C@@H](CN)C(=O)N[C@@H](CN)C(N)=O)C[C@@H]4CCCC[C@@H]43)C[C@@H]3CCCC[C@@H]32)C[C@@H]2CCCC[C@@H]21 [FKAB-1Gs, Ac-GF-Tic-Oic-G-Dpr-Tic-Oic-GF-Tic-Oic-G-Dpr-Tic-Dpr-DprDpr-Dpr-CONH2] (Ac-GF[Tic][Oic]G[Dap][Tic][Oic]GF[Tic][Oic]G[Dap][Tic][Dap][Dap][Dap][Dap]-NH2)
Minimum Inhibitory Concentration Mycobacterium ranae ([2]; ATCC 110): 100 µM | Minimum Inhibitory Concentration Staphylococcus aureus ME/GM/TC resistant [4]: 10 μm μM

CC(=O)NCCC(=O)N[C@@H](Cc1ccc(F)cc1)C(=O)N1Cc2ccccc2C[C@H]1C(=O)N1[C@H](C(=O)NCCC(=O)N[C@@H](CCCCN)C(=O)N2Cc3ccccc3C[C@H]2C(=O)N2[C@H](C(=O)NCCC(=O)N[C@@H](Cc3ccc(F)cc3)C(=O)N3Cc4ccccc4C[C@H]3C(=O)N3[C@H](C(=O)NCCC(=O)N[C@@H](CCCCN)C(=O)N4Cc5ccccc5C[C@H]4C(=O)N[C@@H](CN)C(=O)N[C@@H](CN)C(=O)N[C@@H](CN)C(=O)N[C@@H](CN)C(N)=O)C[C@@H]4CCCC[C@@H]43)C[C@@H]3CCCC[C@@H]32)C[C@@H]2CCCC[C@@H]21 [FKAB-1Gv, Ac-βAla-Fpa-Tic-Oic-βAla-K-Tic-Oic-βAla-Fpa-Tic-Oic-βAla-K-Tic-Dpr-Dpr-Dpr-Dpr-CONH2] (Ac-[βAla][Phe(4-F)][Tic][Oic][βAla]K[Tic][Oic][βAla][Phe(4-F)][Tic][Oic][βAla]K[Tic][Dap][Dap][Dap][Dap]-NH2)
Minimum Inhibitory Concentration Mycobacterium ranae ([2]; ATCC 110): 30 µM

Source: US20120197004A1, “NOVEL ANTI-MICROBIAL PEPTIDOMIMETIC COMPOUNDS AND METHODS TO CALCULATE ANTI-MICROBIAL ACTIVITY” (priority 2006, published 2012)
